{"source": "patent US6455587B1", "about": "(priority 2000, dated 2002)", "note": "pKi: −log10 of the molar value."}
{"target": "T1, recombinant HIV-1 protease (Human immunodeficiency virus type 1 group M subtype B, UniProt P04585)", "T1 construct": "recombinant HIV-1 protease (final concentration 2.18 nM) purchased from Bachem Bioscience; purchased Bachem Bioscience", "assay": "Enzymatic fluorometric (FRET) assay for determining the inhibition constant (Ki) against HIV protease", "format": "biochemical", "conditions": "Ki (nM)", "from_the_text": "(§1) An Enzymatic assay for determining the inhibition constant (Ki) of synthetic compounds targeting the HIV protease may be carried out as follows: This is a fluorometric assay based on the cleavage by protease of a substrate carrying a donor group (EDANS) and an acceptor group (DABCYL) on each side of the cleavage site, interacting together through fluorescence resonance energy transfer (FRET). Cleavage of the substrate by protease stops energy exchange between the two groups, resulting in a time-dependent increase in fluorescence intensity that is linearly related to the extent of substrate hydrolysis.\n(§2) The enzymatic assay is done at 31° C. in white 96-well fluorescence microplates, in a total volume of 200 μL per well. The apparatus used for analysis is a FL600 fluorescence microplate reader (Biotek Instruments). […] Excitation of the fluorophore is done at 340 nm and emission at 485 nm is recorded continuously during the reaction, allowing determination of the enzyme's initial velocity (v0). At the end of the 4 min incubation, the potential inhibitor at a defined concentration in a volume of 4 μL is added to the reaction, and fluorescence readings are taken for another 4 min, allowing determination of enzyme velocity (vi) in the presence of the inhibitory compound. Several concentrations of the putative inhibitors are tested in the assay. After calculation of v0 and vi, the inhibition constant (Ki) of the compound is determined using the equation of Henderson: [formula]\n(§3) and [I]=inhibitor concentration, [S]=substrate concentration,\n(§4) Km=Michaelis-Menten constant, Kiapp=apparent Ki\n(§5) Graphs are traced and the Ki determined using GraphPad Prism software v. 3.0.", "units": {"Ki": "nM"}}
{"smiles": "Cc1ccc(S(=O)(=O)N(CC(C)C)C(CCCCNC(=O)OCC2c3ccccc3-c3ccccc32)C(=O)O)cc1", "note": "(racemic) [Compound 2, Nα-Isobutyl-Nα-(4-methylbenzenesulfonyl)-Nε-(9-fluorenylmethoxycarbonyl)-DL-lysine]", "Ki": 5}
{"smiles": "Cc1ccc(S(=O)(=O)N(CC(C)C)C(CCCNC(=O)OCC2c3ccccc3-c3ccccc32)C(=O)O)cc1", "note": "(racemic) [Compound 6, Nα-Isobutyl-Nα-(4-methylbenzenesulfonyl)-Nδ-(9-fluorenylmethoxycarbonyl)-DL-ornithine]", "Ki": 180}
{"smiles": "Cc1ccc(S(=O)(=O)N(CC(C)C)C(CCCCN(CC(C)C)C(=O)CCc2ccccc2)C(=O)O)cc1", "note": "(racemic) [Compound 159, Nα, Nε-diisobutyl-Nα-(4-methylbenzenesulfonyl)-Nε-(3-phenylpropanoyl)-DL-lysine]", "Ki": "> 300"}
{"smiles": "CC(C)CN([C@@H](CCCCNC(=O)OCC1c2ccccc2-c2ccccc21)C(=O)O)S(=O)(=O)c1ccc(C(C)(C)C)cc1", "note": "[Compound 10, Nα-Isobutyl-Nα-(4-tert-butylbenzenesulfonyl)-Nε-(9-fluorenylmethoxycarbonyl)-L-lysine]", "Ki": 257}
{"target": "T1, recombinant HIV-1 protease", "assay": "Enzymatic fluorometric (FRET) assay for determining the inhibition constant (Ki) against HIV protease", "format": "biochemical", "conditions": "fluorometric FRET assay, 31° C., pH 4.7, recombinant HIV-1 protease 2.18 nM, substrate 10 μM; read-out: Ki", "from_the_text": "as §1, §2, §3, §4, §5"}
{"smiles": "Cc1ccc(S(=O)(=O)N(CC(C)C)C(CCCCNC(CCc2ccccc2)=NC#N)C(=O)O)cc1", "note": "(racemic) [Compound 204, Nα-Isobutyl-Nα-(4-methylbenzenesuIfonyl)-Nε-(dihydrothiocinnamoyl-N-cyanoamidine)-DL-lysine]", "pKi": 7.47}
{"target": "T1, recombinant HIV-1 protease", "assay": "Enzymatic fluorometric (FRET) assay for determining the inhibition constant (Ki) against HIV protease", "format": "biochemical", "conditions": "fluorometric FRET assay, recombinant HIV-1 protease, pH 4.7, 31° C.; read-out: Ki", "from_the_text": "as §1, §2, §3, §4, §5"}
{"smiles": "CC(C)CN(C(CCCCNC(=O)OCC1c2ccccc2-c2ccccc21)C(=O)O)S(=O)(=O)c1ccc(Cl)cc1", "note": "(racemic) [Compound 1, Nα-Isobutyl-Nα-(4-chlorobenzenesulfonyl)-Nε-(9-fluorenylmethoxycarbonyl)-DL-lysine]", "pKi": 7.69}
{"smiles": "CC(C)CN(C(CCCCNC(=O)OCC1c2ccccc2-c2ccccc21)C(=O)O)S(=O)(=O)c1ccc(F)cc1", "note": "(racemic) [Compound 3, Nα-Isobutyl-Nα-(4-fluorobenzenesulfonyl)-Nε-(9-fluorenylmethoxycarbonyl)-DL-lysine]", "pKi": 7.76}
{"smiles": "CC(C)CN(C(CCCCNC(=O)OCc1ccccc1)C(=O)O)S(=O)(=O)c1ccc(I)cc1", "note": "(racemic) [Compound 48, Nα-Isobutyl-Nα-(4-iodobenzenesulfonyl)-Nε-benzyloxycarbonyl-DL-lysine]", "pKi": "< 7.00"}
{"smiles": "Cc1ccc(S(=O)(=O)N(CC(C)C)C(CCCCNC(=S)CCc2ccccc2)C(=O)O)cc1", "note": "(racemic) [Compound 153, Nα-Isobutyl-Nα-(4-methylbenzenesulfonyl)-Nε-dihydrothiocinnamoyl-DL-lysine]", "pKi": 6.82}
{"smiles": "Cc1ccc(S(=O)(=O)N(CC(C)C)C(CCCCNC(CCc2ccccc2)=NC#N)C(=O)O)cc1", "note": "(racemic) [Compound 204, Nα-Isobutyl-Nα-(4-methylbenzenesuIfonyl)-Nε-(dihydrothiocinnamoyl-N-cyanoamidine)-DL-lysine]", "pKi": "< 3.70"}
{"smiles": "CC(C)CN([C@@H](CCCCNC(=O)OCC1c2ccccc2-c2ccccc21)C(=O)O)S(=O)(=O)c1ccc(Br)cc1", "note": "[Compound 4, Nα-Isobutyl-Nα-(4-bromobenzenesulfonyl)-Nε-(9-fluorenylmethoxycarbonyl)-L-lysine]", "pKi": 7.94}
{"smiles": "CC(C)CN(C(CCCCNC(=O)OCc1ccccc1)C(=O)O)S(=O)(=O)c1ccc(Cl)cc1", "note": "(stereo not shown) [Compound 4]", "pKi": "< 7.00"}
{"smiles": "COc1ccc(S(=O)(=O)N(CC(C)C)[C@@H](CCCCNC(=O)OCC2c3ccccc3-c3ccccc32)C(=O)O)cc1", "note": "[Compound 7, Nα-Isobutyl-Nα-(4-methoxybenzenesulfonyl)-Nε-(9-fluorenylmethoxycarbonyl)-L-lysine]", "pKi": 7.97}
{"smiles": "CC(C)CN([C@@H](CCCCNC(=O)OCC1c2ccccc2-c2ccccc21)C(=O)O)S(=O)(=O)c1cccc2ccccc12", "note": "[Compound 8, Nα-Isobutyl-Nα-(1-naphthalenesulfonyl)-Nε-(9-fluorenylmethoxycarbonyl)-L-lysine]", "pKi": 7.26}
{"smiles": "O=C(N[C@@H](CCNS(=O)(=O)c1ccc(Br)cc1)C(=O)O)OCC1c2ccccc2-c2ccccc21", "note": "[Compound 14, (S)-2-(9-Fluorenylmethoxycarbonylamino)-4-(4-bromobenzenesulfonylamino)-butanoic Acid]", "pKi": 4.31}
{"smiles": "COC(=O)[C@H](CCCCNS(=O)(=O)c1ccc(Br)cc1)NC(=O)OCC1c2ccccc2-c2ccccc21", "note": "[Compound 15, Nα-(9-Fluorenylmethoxycarbonyl)-Nε-(4-bromobenzenesulfonyl)-L-lysine Methyl Ester]", "pKi": 4.33}
